Measured values reported in publication PMC12442081, “Combating Fuel Biocontamination: Tailored Antimicrobial Peptides and an Innovative Delivery Strategy” (ACS Applied Bio Materials, 2025).
Where no end group is shown, it is not given here.

Experiments:
[1] = HPLC retention time as a function of peptide hydrophobicity; type: physicochemical; details: chromatographic, Polaris 5 C18-A reverse phase, 0.1% TFA water / 0.1% TFA acetonitrile gradient, 30 min, 300 μM peptide
Experimental: The purity of the peptides was ascertained by high-performance liquid chromatography (HPLC) using Polaris 5 C18-A […] × 4.6 mm reverse phase Zorbax columns from Agilent Technologies. The buffer system contained 0.1% (v/v) TFA in 100% water and 0.1% (v/v) TFA in 100% acetonitrile. Each peptide sample contained 300 μM peptides dissolved in an acetonitrile–water (1:4) mixture. A constant gradient of the two solvent systems was used to generate the chromatogram for 30 min after sample injection.

[2] = test system: Hormoconis resinae (HR) ATCC 20267; type: cell-based
Experimental: (§1) All of the bacterial species were grown overnight at 37 °C in LB broth. 10^7 CFU/mL of cells were resuspended in fresh culture and grown until the mid log phase. , The bacterial cells were adjusted to a concentration of 5 × 10^5 CFU/mL to quantify the MIC. Equal volumes of the respective bacterial cultures were incubated with the serially diluted peptides in 96-well microtiter plate and incubated overnight at 37 °C in ambient air. Microorganisms without peptides were treated as the positive control, while uninoculated broth was used as the negative control. The MIC was taken as the lowest peptide concentration at which observable bacteria growth was inhibited, as measured by a microplate reader (Biotek Synergy H1 microplate reader). Experiments were performed in triplicates, and the mean MIC values were determined. A similar study was performed to understand the effect of peptide purity, i.e., ranging from 70 to 95%, on the peptide MIC.
The same experimental procedures that were conducted for the antibacterial assay were used to determine the MIC of the peptides against the fungal strain, H. resinae.

[3] = test system: microbial clusters MY, KR, DN, MC, BL, RM, SP, PA, HR; assay: Broad-spectrum activity score (in-house scoring matrix); details: sum over 9 microbial clusters: (+) = 1, (X) = 0, Fuel x = -1
Experimental: Table S4. Summarizing the broad-spectrum activity of the peptides, considering the MIC value/ efficacy to control microbial growth upon fuel co-incubation
Peptides Bacterial clusters Fungal
Actinobacteria Firmicutes Proteobacteria Asco- […]
Peptides identified based on the scoring matrix, where (+) =1 (implying peptide activity in fuel environment); (X) = 0 (implying no activity in the desired range, indicated by microbial proliferation); Fuel x = -1(implying no activity in fuel environment).
Clearly, P17 is the best performing peptide in vitro across diverse microbial phyla as well as when incubated in the fuel environment. Based on the activity of the selected peptides, the best

[4] = test system: Macrococcus caseolyticus (MC); assay: Effectiveness of peptides on spiked fuel samples (aqueous layer); type: cell-based; design: key: (+) =1 (implying peptide activity in fuel environment); (X) = 0 (implying no activity in the desired range, indicated by microbial proliferation); Fuel x = -1(implying no activity in fuel environment); details: initial screening in spiked fuel
Experimental: (§2) To study the partitioning of microbes in fuel tanks, filter-sterilized fuel was mixed with BH medium in a 1:1 (v/v) ratio. The inoculum was added to the aqueous phase at the bottom to simulate growth in the aqueous layer of fuel tanks and incubated aerobically at 30 °C for 30 days. Visible growth was assessed, and aliquots from both the aqueous and fuel phases were plated on nutrient agar plates to evaluate microbial growth. Peptides were initially added to the aqueous layer of microbially spiked fuel samples for screening the effectiveness in the fuel environment. The study was further extended over a longer duration, and incubated under aerobic conditions at 30 °C for 30 days. Microbial growth was monitored at regular intervals by plating aliquots from the aqueous layer on the nutrient agar plates.
(§3) The engineered peptides were administered at their respective MICs to the aqueous layer of simulated fuel samples, and samples from both the aqueous and solvent (fuel) layers were removed at intervals of 7, 14, 21, and 30 days and plated on LBA plates to assess cell viability (Table S5).

[5] = test system: Sphingomonas paucimobilis (SP); assay: as above; type: cell-based; design: key: (+) =1 (implying peptide activity in fuel environment); (X) = 0 (implying no activity in the desired range, indicated by microbial proliferation); Fuel x = -1(implying no activity in fuel environment); details: initial screening in spiked fuel
Experimental: as §2, §3

[6] = test system: Pseudomonas aeruginosa (PA); assay: as above; type: cell-based; design: key: (+) =1 (implying peptide activity in fuel environment); (X) = 0 (implying no activity in the desired range, indicated by microbial proliferation); Fuel x = -1(implying no activity in fuel environment); details: initial screening in spiked fuel
Experimental: as §2, §3

[7] = test system: Kocuria rosea (KR); assay: as above; type: cell-based; design: key: (+) =1 (implying peptide activity in fuel environment); (X) = 0 (implying no activity in the desired range, indicated by microbial proliferation); Fuel x = -1(implying no activity in fuel environment); details: initial screening in spiked fuel
Experimental: as §2, §3

[8] = test system: Micrococcus yunnanensis (MY); assay: as above; type: cell-based; design: key: (+) =1 (implying peptide activity in fuel environment); (X) = 0 (implying no activity in the desired range, indicated by microbial proliferation); Fuel x = -1(implying no activity in fuel environment); details: initial screening in spiked fuel
Experimental: as §2, §3

[9] = test system: Hormoconis resinae (HR); assay: as above; type: cell-based; design: key: (+) =1 (implying peptide activity in fuel environment); (X) = 0 (implying no activity in the desired range, indicated by microbial proliferation); Fuel x = -1(implying no activity in fuel environment); details: initial screening in spiked fuel
Experimental: as §2, §3

[10] = test system: Roseomonas mucosa (RM); assay: as above; type: cell-based; design: key: (+) =1 (implying peptide activity in fuel environment); (X) = 0 (implying no activity in the desired range, indicated by microbial proliferation); Fuel x = -1(implying no activity in fuel environment); details: initial screening in spiked fuel
Experimental: as §2, §3

[11] = test system: Dermacoccus nishinomiyaensis (DN); assay: as above; type: cell-based; design: key: (+) =1 (implying peptide activity in fuel environment); (X) = 0 (implying no activity in the desired range, indicated by microbial proliferation); Fuel x = -1(implying no activity in fuel environment); details: initial screening in spiked fuel
Experimental: as §2, §3

[12] = test system: Bacillus licheniformis (BL); assay: as above; type: cell-based; design: key: (+) =1 (implying peptide activity in fuel environment); (X) = 0 (implying no activity in the desired range, indicated by microbial proliferation); Fuel x = -1(implying no activity in fuel environment); details: initial screening in spiked fuel
Experimental: as §2, §3

[13] = test system: Sphingomonas paucimobilis (SP); type: cell-based
Experimental: as §1

[14] = test system: Micrococcus yunnanensis (MY) ATCC 12698; type: cell-based
Experimental: as §1

[15] = test system: Kocuria rosea (KR) ATCC 186; type: cell-based
Experimental: as §1

[16] = test system: Bacillus licheniformis (BL) ATCC 14580; type: cell-based; details: ATCC 14580
Experimental: as §1

[17] = test system: Pseudomonas aeruginosa (PA) ATCC 39327; type: cell-based; details: ATCC 39327
Experimental: as §1

[18] = test system: Macrococcus caseolyticus (MC) ATCC 13548; type: cell-based
Experimental: as §1

[19] = test system: Roseomonas mucosa (RM) ATCC BAA-692; type: cell-based
Experimental: as §1

[20] = test system: Dermacoccus nishinomiyaensis (DN) ATCC 29093; type: cell-based
Experimental: as §1

CC[C@H](C)[C@H](N)C(=O)N[C@H](C(=O)N1CCC[C@H]1C(=O)N[C@@H](Cc1c[nH]c2ccccc12)C(=O)N[C@@H](CCCCN)C(=O)N[C@@H](Cc1c[nH]c2ccccc12)C(=O)N1CCC[C@H]1C(=O)N[C@@H](Cc1c[nH]c2ccccc12)C(=O)N[C@@H](Cc1c[nH]c2ccccc12)C(=O)N1CCC[C@H]1C(=O)N[C@@H](Cc1c[nH]c2ccccc12)C(=O)N[C@@H](CCCNC(=N)N)C(=O)N[C@@H](CCCNC(=N)N)C(=O)O)[C@@H](C)CC [P13]
R t, retention time of peptide on HPLC column as a function of peptide hydrophobicity [1]: 12.084 min | MIC [2]: 7.8 µM | Score [3]: 2 | activity considering MIC value/efficacy upon fuel co-incubation [4]: + | activity considering MIC value/efficacy upon fuel co-incubation [5]: + | activity considering MIC value/efficacy upon fuel co-incubation [6]: X | activity considering MIC value/efficacy upon fuel co-incubation [7]: Fuel x | activity considering MIC value/efficacy upon fuel co-incubation [8]: + | activity considering MIC value/efficacy upon fuel co-incubation [9]: Fuel x | activity considering MIC value/efficacy upon fuel co-incubation [10]: X | activity considering MIC value/efficacy upon fuel co-incubation [11]: X | activity considering MIC value/efficacy upon fuel co-incubation [12]: + | MIC [13]: 0.9 µM | MIC [14]: 0.9 µM | MIC [15]: 3.9 µM | MIC [16]: 3.9 µM | MIC [17]: 7.8 µM | MIC [18]: 3.9 µM

ILPWKWPWWPWRK [P2]
R t, retention time of peptide on HPLC column as a function of peptide hydrophobicity [1]: 12.624 min | Score [3]: 2 | activity considering MIC value/efficacy upon fuel co-incubation [4]: + | activity considering MIC value/efficacy upon fuel co-incubation [5]: + | activity considering MIC value/efficacy upon fuel co-incubation [6]: X | activity considering MIC value/efficacy upon fuel co-incubation [7]: + | activity considering MIC value/efficacy upon fuel co-incubation [8]: X | activity considering MIC value/efficacy upon fuel co-incubation [9]: X | activity considering MIC value/efficacy upon fuel co-incubation [10]: Fuel x | activity considering MIC value/efficacy upon fuel co-incubation [11]: Fuel x | activity considering MIC value/efficacy upon fuel co-incubation [12]: + | MIC [13]: 0.9 µM | MIC [19]: 0.9 µM | MIC [15]: 0.9 µM | MIC [16]: 0.9 µM | MIC [18]: 1.9 µM | MIC [20]: 0.9 µM

ILPWKWPFWPWRR [P7]
R t, retention time of peptide on HPLC column as a function of peptide hydrophobicity [1]: 12.156 min | MIC [2]: 1.95 µM | Score [3]: 3 | activity considering MIC value/efficacy upon fuel co-incubation [4]: X | activity considering MIC value/efficacy upon fuel co-incubation [5]: + | activity considering MIC value/efficacy upon fuel co-incubation [6]: X | activity considering MIC value/efficacy upon fuel co-incubation [7]: X | activity considering MIC value/efficacy upon fuel co-incubation [8]: + | activity considering MIC value/efficacy upon fuel co-incubation [9]: Fuel x | activity considering MIC value/efficacy upon fuel co-incubation [10]: + | activity considering MIC value/efficacy upon fuel co-incubation [11]: X | activity considering MIC value/efficacy upon fuel co-incubation [12]: + | MIC [13]: 0.9 µM | MIC [14]: 0.9 µM | MIC [19]: 0.9 µM | MIC [16]: 0.9 µM | MIC [17]: 31.25 µM

ILPWKWPWFPWRR [P6]
R t, retention time of peptide on HPLC column as a function of peptide hydrophobicity [1]: 12.299 min | MIC [2]: 0.9 µM | Score [3]: -3 | activity considering MIC value/efficacy upon fuel co-incubation [4]: X | activity considering MIC value/efficacy upon fuel co-incubation [5]: X | activity considering MIC value/efficacy upon fuel co-incubation [6]: X | activity considering MIC value/efficacy upon fuel co-incubation [7]: Fuel x | activity considering MIC value/efficacy upon fuel co-incubation [8]: + | activity considering MIC value/efficacy upon fuel co-incubation [9]: Fuel x | activity considering MIC value/efficacy upon fuel co-incubation [10]: X | activity considering MIC value/efficacy upon fuel co-incubation [11]: Fuel x | activity considering MIC value/efficacy upon fuel co-incubation [12]: Fuel x | MIC [13]: 15.625 µM | MIC [14]: 0.9 µM | MIC [15]: 0.9 µM | MIC [16]: 0.9 µM | MIC [17]: 7.8 µM | MIC [20]: 0.9 µM
